Results from ChEMBL document CHEMBL1201862, “PubChem BioAssay data set” (2004).
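How tested: cells in 96-well plates exposed to compound for 48 hours at five concentrations. GI50 is the concentration that inhibits growth by half.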 Activity calls are given as the source filed them. Cut-off read from the data, not from the text of the source: active = GI50 up to about 1.1 µM and inactive = higher.

How the values were obtained:
Assay in all cases: NCI tumour cell line growth inhibition, 48 h
CCRF-CEM = tested on: CCRF-CEM
NCI-H226 = tested on: NCI-H226
SNB-75 = tested on: SNB-75
HOP-62 = tested on: HOP-62
EKVX = tested on: EKVX
SF-295 = tested on: SF-295
SK-MEL-5 = tested on: SK-MEL-5
RPMI-8226 = tested on: RPMI-8226
SN12C = tested on: SN12C
OVCAR-5 = tested on: OVCAR-5
786-0 = tested on: 786-0
M14 = tested on: M14
OVCAR-3 = tested on: OVCAR-3
OVCAR-8 = tested on: OVCAR-8
HL-60 = tested on: HL-60
HT-29 = tested on: HT-29
NCI-H522 = tested on: NCI-H522
CAKI-1 = tested on: CAKI-1
Malme-3M = tested on: Malme-3M
MDA-N = tested on: MDA-N
BT-549 = tested on: BT-549
ACHN = tested on: ACHN
HOP-92 = tested on: HOP-92
RXF 393 = tested on: RXF 393
SNB-19 = tested on: SNB-19
SK-MEL-28 = tested on: SK-MEL-28
SF-539 = tested on: SF-539
DU-145 = tested on: DU-145
MDA-MB-231 = tested on: MDA-MB-231
UO-31 = tested on: UO-31
MOLT-4 = tested on: MOLT-4
Hs-578T = tested on: Hs-578T
NCI/ADR-RES = tested on: NCI/ADR-RES
HCT-116 = tested on: HCT-116
T47D = tested on: T47D
K562 = tested on: K562
LOX IMVI = tested on: LOX IMVI
SK-MEL-2 = tested on: SK-MEL-2
U-251 = tested on: U-251
NCI-H23 = tested on: NCI-H23
TK-10 = tested on: TK-10
COLO 205 = tested on: COLO 205
UACC-257 = tested on: UACC-257
SK-OV-3 = tested on: SK-OV-3
A549 = tested on: A549
UACC-62 = tested on: UACC-62
PC-3 = tested on: PC-3
MDA-MB-435 = tested on: MDA-MB-435
IGROV-1 = tested on: IGROV-1
NCI-H460 = tested on: NCI-H460
SF-268 = tested on: SF-268
KM12 = tested on: KM12
SW-620 = tested on: SW-620
A498 = tested on: A498
HCT-15 = tested on: HCT-15
SR = tested on: SR
OVCAR-4 = tested on: OVCAR-4
HCC 2998 = tested on: HCC 2998
MCF7 = tested on: MCF7

SMILES: c1ccc(CC2(c3cc4ccccc4[nH]3)OCCO2)nc1
- GI50 (CCRF-CEM): 83 µM (inactive)
- GI50 (NCI-H226): 18 µM (inactive)
- GI50 (SNB-75): 12.1 µM (inactive)
- GI50 (HOP-62): > 100 µM (inactive)
- GI50 (EKVX): 92.3 µM (inactive)
- GI50 (SF-295): 58.1 µM (inactive)
- GI50 (SK-MEL-5): > 100 µM (inactive)
- GI50 (RPMI-8226): > 100 µM (inactive)
- GI50 (SN12C): > 100 µM (inactive)
- GI50 (OVCAR-5): > 100 µM (inactive)
- GI50 (786-0): > 100 µM (inactive)
- GI50 (M14): > 100 µM (inactive)
- GI50 (OVCAR-3): 90.6 µM (inactive)
- GI50 (OVCAR-8): > 100 µM (inactive)
- GI50 (HL-60): 72.3 µM (inactive)
- GI50 (HT-29): > 100 µM (inactive)
- GI50 (NCI-H522): 70.8 µM (inactive)
- GI50 (CAKI-1): > 100 µM (inactive)
- GI50 (Malme-3M): 47.6 µM (inactive)
- GI50 (MDA-N): > 100 µM (inactive)
- GI50 (BT-549): > 100 µM (inactive)
- GI50 (ACHN): > 100 µM (inactive)
- GI50 (HOP-92): > 100 µM (inactive)
- GI50 (RXF 393): 88.1 µM (inactive)
- GI50 (SNB-19): > 100 µM (inactive)
- GI50 (SK-MEL-28): > 100 µM (inactive)
- GI50 (SF-539): > 100 µM (inactive)
- GI50 (DU-145): > 100 µM (inactive)
- GI50 (MDA-MB-231): > 100 µM (inactive)
- GI50 (UO-31): > 100 µM (inactive)
- GI50 (MOLT-4): 61.1 µM (inactive)
- GI50 (Hs-578T): 51.5 µM (inactive)
- GI50 (NCI/ADR-RES): > 100 µM (inactive)
- GI50 (HCT-116): > 100 µM (inactive)
- GI50 (T47D): > 100 µM (inactive)
- GI50 (K562): 50.2 µM (inactive)
- GI50 (LOX IMVI): 34.7 µM (inactive)
- GI50 (SK-MEL-2): > 100 µM (inactive)
- GI50 (U-251): > 100 µM (inactive)
- GI50 (NCI-H23): > 100 µM (inactive)
- GI50 (TK-10): > 100 µM (inactive)
- GI50 (COLO 205): > 100 µM (inactive)
- GI50 (UACC-257): > 100 µM (inactive)
- GI50 (SK-OV-3): > 100 µM (inactive)
- GI50 (A549): > 100 µM (inactive)
- GI50 (UACC-62): > 100 µM (inactive)
- GI50 (PC-3): > 100 µM (inactive)
- GI50 (MDA-MB-435): > 100 µM (inactive)
- GI50 (IGROV-1): 1.95 µM (inactive)
- GI50 (NCI-H460): > 100 µM (inactive)
- GI50 (SF-268): > 100 µM (inactive)
- GI50 (KM12): > 100 µM (inactive)
- GI50 (SW-620): > 100 µM (inactive)
- GI50 (A498): > 100 µM (inactive)
- GI50 (HCT-15): > 100 µM

SMILES: C=C1C(O)C23CCC4C(C(=O)O)(C(=O)O)CC(OC5OC(CO)C(O)C(OC(=O)CCc6ccccc6)C5NC(=O)CC(C)C)CC4(C)C2CCC1(O)C3 (configuration not stated)
- GI50 (CCRF-CEM): > 100 µM (inactive)
- GI50 (NCI-H226): > 100 µM (inactive)
- GI50 (SNB-75): > 100 µM (inactive)
- GI50 (HOP-62): > 100 µM (inactive)
- GI50 (EKVX): > 100 µM (inactive)
- GI50 (SF-295): > 100 µM (inactive)
- GI50 (SK-MEL-5): > 100 µM (inactive)
- GI50 (RPMI-8226): > 100 µM (inactive)
- GI50 (SN12C): > 100 µM (inactive)
- GI50 (OVCAR-5): > 100 µM (inactive)
- GI50 (786-0): > 100 µM (inactive)
- GI50 (SR): > 100 µM (inactive)
- GI50 (M14): > 100 µM (inactive)
- GI50 (OVCAR-3): > 100 µM (inactive)
- GI50 (OVCAR-8): > 100 µM (inactive)
- GI50 (HL-60): > 100 µM (inactive)
- GI50 (HT-29): > 100 µM (inactive)
- GI50 (NCI-H522): > 100 µM (inactive)
- GI50 (CAKI-1): > 100 µM (inactive)
- GI50 (OVCAR-4): > 100 µM (inactive)
- GI50 (Malme-3M): > 100 µM (inactive)
- GI50 (MDA-N): > 100 µM (inactive)
- GI50 (BT-549): > 100 µM (inactive)
- GI50 (ACHN): > 100 µM (inactive)
- GI50 (HOP-92): > 100 µM (inactive)
- GI50 (RXF 393): > 100 µM (inactive)
- GI50 (SNB-19): > 100 µM (inactive)
- GI50 (SK-MEL-28): > 100 µM (inactive)
- GI50 (SF-539): > 100 µM (inactive)
- GI50 (DU-145): > 100 µM (inactive)
- GI50 (MDA-MB-231): > 100 µM (inactive)
- GI50 (UO-31): > 100 µM (inactive)
- GI50 (MOLT-4): > 100 µM (inactive)
- GI50 (Hs-578T): > 100 µM (inactive)
- GI50 (HCT-116): > 100 µM (inactive)
- GI50 (T47D): > 100 µM (inactive)
- GI50 (K562): > 100 µM (inactive)
- GI50 (LOX IMVI): > 100 µM (inactive)
- GI50 (SK-MEL-2): > 100 µM (inactive)
- GI50 (U-251): > 100 µM (inactive)
- GI50 (HCC 2998): > 100 µM (inactive)
- GI50 (NCI-H23): > 100 µM (inactive)
- GI50 (TK-10): > 100 µM (inactive)
- GI50 (COLO 205): > 100 µM (inactive)
- GI50 (UACC-257): > 100 µM (inactive)
- GI50 (SK-OV-3): > 100 µM (inactive)
- GI50 (A549): > 100 µM (inactive)
- GI50 (UACC-62): > 100 µM (inactive)
- GI50 (PC-3): > 100 µM (inactive)
- GI50 (MDA-MB-435): > 100 µM (inactive)
- GI50 (IGROV-1): > 100 µM (inactive)
- GI50 (NCI-H460): > 100 µM (inactive)
- GI50 (SF-268): > 100 µM (inactive)
- GI50 (KM12): > 100 µM (inactive)
- GI50 (SW-620): > 100 µM (inactive)
- GI50 (A498): > 100 µM (inactive)
- GI50 (HCT-15): > 100 µM

SMILES: OC(c1ccccc1)(c1cccnc1)C(O)(c1ccccc1)c1cccnc1 (configuration not stated)
- GI50 (CCRF-CEM): > 100 µM (inactive)
- GI50 (NCI-H226): 69.7 µM (inactive)
- GI50 (SNB-75): > 100 µM (inactive)
- GI50 (EKVX): > 100 µM (inactive)
- GI50 (SF-295): > 100 µM (inactive)
- GI50 (SK-MEL-5): > 100 µM (inactive)
- GI50 (RPMI-8226): > 100 µM (inactive)
- GI50 (SN12C): > 100 µM (inactive)
- GI50 (OVCAR-5): > 100 µM (inactive)
- GI50 (786-0): > 100 µM (inactive)
- GI50 (M14): > 100 µM (inactive)
- GI50 (OVCAR-8): > 100 µM (inactive)
- GI50 (HL-60): > 100 µM (inactive)
- GI50 (HT-29): > 100 µM (inactive)
- GI50 (NCI-H522): 6.97 µM (inactive)
- GI50 (CAKI-1): > 100 µM (inactive)
- GI50 (Malme-3M): > 100 µM (inactive)
- GI50 (MDA-N): > 100 µM (inactive)
- GI50 (BT-549): > 100 µM (inactive)
- GI50 (ACHN): > 100 µM (inactive)
- GI50 (HOP-92): > 100 µM (inactive)
- GI50 (RXF 393): > 100 µM (inactive)
- GI50 (SNB-19): > 100 µM (inactive)
- GI50 (SF-539): > 100 µM (inactive)
- GI50 (DU-145): > 100 µM (inactive)
- GI50 (MDA-MB-231): > 100 µM (inactive)
- GI50 (UO-31): > 100 µM (inactive)
- GI50 (Hs-578T): > 100 µM (inactive)
- GI50 (NCI/ADR-RES): > 100 µM (inactive)
- GI50 (HCT-116): > 100 µM (inactive)
- GI50 (T47D): > 100 µM (inactive)
- GI50 (K562): > 10 µM (inactive)
- GI50 (SK-MEL-2): > 100 µM (inactive)
- GI50 (U-251): > 100 µM (inactive)
- GI50 (NCI-H23): > 100 µM (inactive)
- GI50 (MCF7): > 100 µM (inactive)
- GI50 (TK-10): > 100 µM (inactive)
- GI50 (COLO 205): > 100 µM (inactive)
- GI50 (UACC-257): > 100 µM (inactive)
- GI50 (SK-OV-3): > 100 µM (inactive)
- GI50 (A549): > 100 µM (inactive)
- GI50 (UACC-62): > 100 µM (inactive)
- GI50 (PC-3): > 100 µM (inactive)
- GI50 (MDA-MB-435): > 100 µM (inactive)
- GI50 (IGROV-1): > 100 µM (inactive)
- GI50 (NCI-H460): > 100 µM (inactive)
- GI50 (SF-268): > 100 µM (inactive)
- GI50 (KM12): > 100 µM (inactive)
- GI50 (SW-620): > 100 µM (inactive)
- GI50 (HCT-15): > 100 µM
